In PubChem BioAssay (NCI):
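Interpolation was linear, between the two tested concentrations surrounding the appropriate level; five concentrations were tested over 48 hours in 96-well plates. TGI marks complete inhibition of growth.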

Tests used:
Assay in all cases: NCI tumour cell line growth inhibition, 48 h
[1] = system: HCT-116 colon
[2] = system: OVCAR-5 ovarian
[3] = system: CAKI-1 renal
[4] = system: MOLT-4 leukemia
[5] = system: A549 NSCLC
[6] = system: HOP-62 NSCLC
[7] = system: DMS 273 small cell lung
[8] = system: DMS 114 small cell lung
[9] = system: CCRF-CEM leukemia
[10] = system: HCT-15 colon
[11] = system: HT29 colon
[12] = system: K-562 leukemia
[13] = system: HL-60(TB) leukemia
[14] = system: SF-295 CNS
[15] = system: NCI-H460 lung
[16] = system: DLD-1 colon
[17] = system: OVCAR-4 ovarian
[18] = system: XF 498 CNS
[19] = system: UACC-257 melanoma
[20] = system: SF-539 CNS
[21] = system: MCF7 breast
[22] = system: SW-620 colon
[23] = system: SNB-78 CNS
[24] = system: EKVX NSCLC
[25] = system: M19-MEL melanoma
[26] = system: P388 leukemia
[27] = system: SNB-19 CNS
[28] = system: RPMI-8226 leukemia
[29] = system: SF-268 CNS
[30] = system: HOP-92 NSCLC
[31] = system: IGROV1 ovarian
[32] = system: HCC-2998 colon
[33] = system: LOX IMVI melanoma
[34] = system: COLO 205 colon
[35] = system: SN12C renal
[36] = system: SK-MEL-2 melanoma
[37] = system: HOP-18 NSCLC
[38] = system: KM20L2 colon
[39] = system: SK-MEL-28 melanoma
[40] = system: UO-31 renal
[41] = system: UACC-62 melanoma
[42] = system: P388/ADR leukemia
[43] = system: SK-OV-3 ovarian
[44] = system: OVCAR-3 ovarian
[45] = system: A498 renal
[46] = system: NCI-H226 lung
[47] = system: NCI-H23 lung
[48] = system: KM12 colon
[49] = system: SK-MEL-5 melanoma
[50] = system: NCI-H522 lung
[51] = system: RXF 393 renal
[52] = system: U251 CNS
[53] = system: SN12K1 renal
[54] = system: OVCAR-8 ovarian
[55] = system: MALME-3M melanoma
[56] = system: SNB-75 CNS
[57] = system: ACHN renal
[58] = system: RXF-631 renal
[59] = system: TK-10 renal
[60] = system: M14 melanoma
[61] = system: 786-0 renal
[62] = system: SR leukemia

Question: For `CCN(CC)CCCC(C)Nc1c2ccc(Cl)cc2nc2cc(Cl)ccc12` (centres undefined), which TGI [1] is on record?
Answer: 7.56 µM

Question: What about the TGI [2] of the same molecule?
Answer: 21.2 µM

Question: And the TGI [3]?
Answer: 10.7 µM

Question: And the TGI [4]?
Answer: 5.31 µM

Question: And the TGI [5]?
Answer: 18.1 µM

Question: And the TGI [6]?
Answer: 22.1 µM

Question: What about the TGI [7] of the same molecule?
Answer: 10.3 µM

Question: What about the TGI [8] of the same molecule?
Answer: 16.6 µM

Question: What about the TGI [9] of the same molecule?
Answer: 7.47 µM

Question: And the TGI [10]?
Answer: 9.85 µM

Question: And the TGI [11]?
Answer: 8.28 µM

Question: And the TGI [12]?
Answer: 5.05 µM

Question: And the TGI [13]?
Answer: 4.6 µM

Question: What about the TGI [14] of the same molecule?
Answer: 8.49 µM

Question: What about the TGI [15] of the same molecule?
Answer: 12 µM

Question: And the TGI [16]?
Answer: 9.38 µM

Question: What about the TGI [17] of the same molecule?
Answer: 9.68 µM

Question: What about the TGI [18] of the same molecule?
Answer: 9.64 µM

Question: And the TGI [19]?
Answer: 8.87 µM

Question: What about the TGI [20] of the same molecule?
Answer: 15.6 µM

Question: And the TGI [21]?
Answer: 9.49 µM

Question: And the TGI [22]?
Answer: 12.5 µM

Question: What about the TGI [23] of the same molecule?
Answer: 26.6 µM

Question: What about the TGI [24] of the same molecule?
Answer: 29.8 µM

Question: What about the TGI [25] of the same molecule?
Answer: 9.97 µM

Question: What about the TGI [26] of the same molecule?
Answer: 3.58 µM

Question: What about the TGI [27] of the same molecule?
Answer: 40.8 µM

Question: What about the TGI [28] of the same molecule?
Answer: 5.11 µM

Question: What about the TGI [29] of the same molecule?
Answer: 16.3 µM

Question: What about the TGI [30] of the same molecule?
Answer: 9.64 µM

Question: And the TGI [31]?
Answer: 19.5 µM

Question: What about the TGI [32] of the same molecule?
Answer: 5.49 µM

Question: What about the TGI [33] of the same molecule?
Answer: 6.94 µM

Question: And the TGI [34]?
Answer: 5.01 µM

Question: What about the TGI [35] of the same molecule?
Answer: 17.3 µM

Question: What about the TGI [36] of the same molecule?
Answer: 29.2 µM

Question: And the TGI [37]?
Answer: 18.1 µM

Question: What about the TGI [38] of the same molecule?
Answer: 11.6 µM

Question: What about the TGI [39] of the same molecule?
Answer: 15.8 µM

Question: What about the TGI [40] of the same molecule?
Answer: 11.5 µM

Question: What about the TGI [41] of the same molecule?
Answer: 16.1 µM

Question: And the TGI [42]?
Answer: 3.48 µM

Question: And the TGI [43]?
Answer: 21.9 µM

Question: And the TGI [44]?
Answer: 13.4 µM

Question: What about the TGI [45] of the same molecule?
Answer: 21.9 µM

Question: What about the TGI [46] of the same molecule?
Answer: 9.76 µM

Question: And the TGI [47]?
Answer: 20.8 µM

Question: And the TGI [48]?
Answer: 9.29 µM

Question: And the TGI [49]?
Answer: 10 µM

Question: What about the TGI [50] of the same molecule?
Answer: 17.5 µM

Question: And the TGI [51]?
Answer: 13.2 µM

Question: What about the TGI [52] of the same molecule?
Answer: 14.3 µM

Question: What about the TGI [53] of the same molecule?
Answer: 8.47 µM

Question: What about the TGI [54] of the same molecule?
Answer: 19.3 µM

Question: And the TGI [55]?
Answer: 25.5 µM

Question: And the TGI [56]?
Answer: 22.7 µM

Question: How did the TGI [1] turn out when `Cc1ccc2nc(Sc3c([N+](=O)[O-])ncn3C)[nH]c2c1` was run?
Answer: 53.9 µM

Question: And the TGI [2]?
Answer: > 100 µM

Question: And the TGI [57]?
Answer: > 100 µM

Question: What about the TGI [3] of the same molecule?
Answer: 27.5 µM

Question: And the TGI [4]?
Answer: 31.1 µM

Question: And the TGI [5]?
Answer: > 100 µM

Question: What about the TGI [6] of the same molecule?
Answer: > 100 µM

Question: What about the TGI [7] of the same molecule?
Answer: 40.1 µM

Question: And the TGI [8]?
Answer: 28.9 µM

Question: What about the TGI [10] of the same molecule?
Answer: 32.4 µM

Question: And the TGI [11]?
Answer: > 100 µM

Question: And the TGI [58]?
Answer: 32.3 µM

Question: What about the TGI [59] of the same molecule?
Answer: > 100 µM

Question: And the TGI [14]?
Answer: > 100 µM

Question: And the TGI [15]?
Answer: > 100 µM

Question: And the TGI [16]?
Answer: 49.8 µM

Question: And the TGI [17]?
Answer: 79.2 µM

Question: What about the TGI [18] of the same molecule?
Answer: 18.9 µM

Question: And the TGI [19]?
Answer: 38.5 µM

Question: What about the TGI [20] of the same molecule?
Answer: 36.4 µM

Question: And the TGI [22]?
Answer: > 100 µM

Question: And the TGI [23]?
Answer: 76.3 µM

Question: What about the TGI [24] of the same molecule?
Answer: 63.9 µM

Question: And the TGI [25]?
Answer: 57.2 µM

Question: And the TGI [27]?
Answer: > 100 µM

Question: And the TGI [28]?
Answer: 78.7 µM

Question: And the TGI [29]?
Answer: 83.9 µM

Question: What about the TGI [30] of the same molecule?
Answer: 41.3 µM

Question: What about the TGI [31] of the same molecule?
Answer: 65.6 µM

Question: What about the TGI [32] of the same molecule?
Answer: 30.6 µM

Question: What about the TGI [33] of the same molecule?
Answer: > 100 µM

Question: And the TGI [34]?
Answer: 27.8 µM

Question: And the TGI [35]?
Answer: 35.8 µM

Question: What about the TGI [60] of the same molecule?
Answer: 92.5 µM

Question: What about the TGI [37] of the same molecule?
Answer: > 100 µM

Question: And the TGI [61]?
Answer: > 100 µM

Question: And the TGI [62]?
Answer: 42.2 µM

Question: What about the TGI [38] of the same molecule?
Answer: > 100 µM

Question: And the TGI [39]?
Answer: > 100 µM

Question: What about the TGI [40] of the same molecule?
Answer: 88.4 µM

Question: And the TGI [41]?
Answer: 35.7 µM

Question: What about the TGI [43] of the same molecule?
Answer: > 100 µM

Question: What about the TGI [44] of the same molecule?
Answer: 56.7 µM

Question: And the TGI [45]?
Answer: 83.2 µM

Question: What about the TGI [46] of the same molecule?
Answer: 45 µM

Question: What about the TGI [47] of the same molecule?
Answer: 50.5 µM

Question: And the TGI [48]?
Answer: > 100 µM

Question: What about the TGI [49] of the same molecule?
Answer: 33.1 µM

Question: And the TGI [51]?
Answer: 39.5 µM

Question: And the TGI [52]?
Answer: > 100 µM

Question: And the TGI [54]?
Answer: 41 µM

Question: And the TGI [55]?
Answer: 47.4 µM

Question: And the TGI [56]?
Answer: 89.3 µM
